From US5013722A, “Cholecystokinin analogs for controlling appetite” (Hoffmann-LaRoche Inc., priority 1989, dated 1991)
Where a SMILES comes first, the peptide text is derived from it. Where no end group is shown, it is not given here. [ ]: non-standard residue; d: D form. The star is where a group is joined. Thr(SO3H) = C[C@@H](OS(=O)(=O)O)[C@H](N)C(=O)O; sY = N[C@@H](Cc1ccc(OS(=O)(=O)O)cc1)C(=O)O; NMeF = CN[C@@H](Cc1ccccc1)C(=O)O; Nle = CCCC[C@H](N)C(=O)O; For = O=C*

Assays:
rat and monkey, satiety = settings: cited from earlier work
[1] = target: T1, receptors in bovine striatum (3H-CCK-8-(SO3 H) binding, central receptor) (Bos taurus, UniProt P79266); experiment: In vitro receptor binding assay, bovine striatum homogenate, 3H-CCK-8-(SO3H) radioligand; settings: 0.15 nM radioligand, 30 min, 25° C.; read-out: Bovine Striatum IC50 (inhibition of specific 3H-CCK-8-(SO3H) binding)
T1 construct: receptors in homogenized preparations of rat pancreatic cells and bovine striata; from tissue; host or cells: bovine striatum homogenate (48,000 x g pellet)
T1 sequence (P79266 1-454): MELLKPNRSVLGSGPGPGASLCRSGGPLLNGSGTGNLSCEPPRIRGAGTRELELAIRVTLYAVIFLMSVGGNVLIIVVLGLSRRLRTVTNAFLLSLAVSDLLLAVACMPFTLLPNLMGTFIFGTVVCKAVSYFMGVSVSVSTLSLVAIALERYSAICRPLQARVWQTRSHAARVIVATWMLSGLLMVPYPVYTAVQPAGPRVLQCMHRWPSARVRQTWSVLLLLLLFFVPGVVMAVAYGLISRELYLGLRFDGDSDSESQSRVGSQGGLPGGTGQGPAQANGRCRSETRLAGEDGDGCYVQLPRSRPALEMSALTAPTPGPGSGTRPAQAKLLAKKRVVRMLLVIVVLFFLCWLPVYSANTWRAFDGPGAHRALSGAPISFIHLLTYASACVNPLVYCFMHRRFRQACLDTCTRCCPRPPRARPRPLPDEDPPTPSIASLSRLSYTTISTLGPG
Procedure: Frozen bovine striatum (approx. 5 g) and fresh rat pancreas (approx. 5 g) cleaned of fat and extraneous tissue were homogenized in HEPES buffer #1 (10 mM HEPES+130 mM NaCl+5 mM MgCl2. pH 7.4) using 35 parts buffer per 1 part tissue on a wet weight/volume basis (approx. 175 ml). The tissue was homogenized 2 x for approx. 15 sec. at 0° C. using a Polytron homogenizer at a setting of 6. The tissue was isolated by centrifugation at 48,000 x g for 10 min. at 0° C. The resulting tissue pellet was resuspended in HEPES buffer #2 (10 mM HEPES+130 mM NaCl+5 mM MgCl2 +1 mg/L phenylmethanesulfonyl fluoride (PMSF)+200 mg/L Bacitracin): 1 part striatal tissue (original wet weight) per 80 parts buffer and 1 part pancreas tissue (original wet weight) per 70 parts buffer.
Incubation was initiated by combining various concentrations of native CCK-8 or peptides of formula I, II and III with ^3 H-CCK-8-(SO3 H) (final conc.=0.15 nM) and tissue homogenate (striatum 0.26 mg protein in 2 ml final volume; pancreas 0.165 mg protein in 1 ml final volume). Samples were incubated for 30 min. at 25° C. and the incubation terminated by pouring the mixture onto a pre-wet Whatman GF/B filter on a Sandbeck Vacuum Filtration Manifold. The incubation tubes were washed with 2×3 ml of ice-cold HEPES Buffer #2 and the wash filtered through the GF/B filter. The filter was air dried for 10 min. and then placed in a scintillation vial with 12 ml of Beckman HP/b Ready-Solv scintillation cocktail. The vials were shaken for 2 hours and then counted using a Beckman Model 7800 liquid scintillation spectrometer. Non-specific binding was determined in the presence of 1 micromole native CCK-8 and subtracted from all samples to determine specific binding. The concentration of ^3 peptide necessary to inhibit 50% of total specific H-CCK-8-(SO3 H) binding (IC50 value) was determined by log-probit analysis.

[2] = target: T2, Rat kidney metalloendopeptidase (Rattus norvegicus, UniProt P07861); experiment: Degradation by rat kidney metalloendopeptidase (HPLC); type: in vitro ADME; settings: for % Degradation by Height: 37° C., pH 7.6
T2 construct: from tissue; host or cells: rat kidney
T2 sequence (P07861 1-750): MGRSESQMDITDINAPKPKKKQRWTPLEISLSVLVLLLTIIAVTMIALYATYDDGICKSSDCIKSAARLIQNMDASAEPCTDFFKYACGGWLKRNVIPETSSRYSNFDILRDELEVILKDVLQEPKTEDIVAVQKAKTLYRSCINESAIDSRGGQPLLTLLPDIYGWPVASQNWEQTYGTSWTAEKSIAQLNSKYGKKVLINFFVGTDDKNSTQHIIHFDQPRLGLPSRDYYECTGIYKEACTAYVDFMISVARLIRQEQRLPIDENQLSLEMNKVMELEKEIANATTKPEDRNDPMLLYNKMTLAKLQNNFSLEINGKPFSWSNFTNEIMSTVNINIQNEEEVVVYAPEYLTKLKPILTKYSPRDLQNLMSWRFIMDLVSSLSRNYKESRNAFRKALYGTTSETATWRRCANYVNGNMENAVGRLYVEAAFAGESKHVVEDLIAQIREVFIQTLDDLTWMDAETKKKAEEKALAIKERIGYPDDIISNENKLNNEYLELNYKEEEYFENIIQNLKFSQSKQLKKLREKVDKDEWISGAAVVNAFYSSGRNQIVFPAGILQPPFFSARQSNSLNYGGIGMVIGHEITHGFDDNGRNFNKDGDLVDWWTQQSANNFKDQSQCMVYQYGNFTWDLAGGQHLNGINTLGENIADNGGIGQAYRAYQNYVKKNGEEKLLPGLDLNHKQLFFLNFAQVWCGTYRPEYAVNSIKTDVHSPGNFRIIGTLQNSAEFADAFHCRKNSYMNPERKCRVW
Procedure: Rat kidney metalloendopeptidase (0.01 μg) and 5 nmol of peptide were incubated in 2 μmol tris-HCl buffer (pH 7.6) and at 37° C. for varying periods of time. The degradation of the peptide was monitored by analytical HPLC on a 5 micron Adsorbosphere-ODS column with a 0-50% CH3 CN gradient in 0.1N potassium phosphate, pH 3.0, with UV detection at 210 nm. Rates are based on presumed production of Asp-Tyr(SO3 H)-Met-Gly for CCK-8 and the presumed production of Ac-Tyr(SO3 H)-Met-Gly for Example 2 and 3.

[3] = target: T3, receptors in rat pancreas (3H-CCK-8-(SO3 H) binding) (Rattus norvegicus, UniProt P30551); experiment: In vitro receptor binding assay, rat pancreas homogenate, 3H-CCK-8-(SO3H) radioligand
T3 construct: receptors in homogenized preparations of rat pancreatic cells and bovine striata; from tissue; host or cells: rat pancreas homogenate (48,000 x g pellet)
T3 sequence (P30551 1-444): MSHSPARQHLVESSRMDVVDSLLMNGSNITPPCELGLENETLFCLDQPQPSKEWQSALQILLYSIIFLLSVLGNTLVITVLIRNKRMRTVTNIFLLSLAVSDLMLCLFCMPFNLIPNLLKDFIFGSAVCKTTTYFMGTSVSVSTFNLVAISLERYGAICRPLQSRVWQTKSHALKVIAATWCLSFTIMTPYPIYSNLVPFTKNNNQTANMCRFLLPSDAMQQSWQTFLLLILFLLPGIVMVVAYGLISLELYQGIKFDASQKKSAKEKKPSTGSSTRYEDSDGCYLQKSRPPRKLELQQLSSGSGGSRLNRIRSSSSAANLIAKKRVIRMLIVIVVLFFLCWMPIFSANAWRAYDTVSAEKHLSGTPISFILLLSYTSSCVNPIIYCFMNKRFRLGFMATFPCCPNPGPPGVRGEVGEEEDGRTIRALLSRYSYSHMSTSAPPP
Procedure: This strategy was utilized to minimize central nervous system side effects by identifying peptides with peripheral receptor selectivity. […] The tissue was homogenized 2 x for approx. 15 sec. at 0° C. using a Polytron homogenizer at a setting of 6. The tissue was isolated by centrifugation at 48,000 x g for 10 min. at 0° C. […] Samples were incubated for 30 min. at 25° C. and the incubation terminated by pouring the mixture onto a pre-wet Whatman GF/B filter on a Sandbeck Vacuum Filtration Manifold. The incubation tubes were washed with 2×3 ml of ice-cold HEPES Buffer #2 and the wash filtered through the GF/B filter. The filter was air dried for 10 min. and then placed in a scintillation vial with 12 ml of Beckman HP/b Ready-Solv scintillation cocktail. The vials were shaken for 2 hours and then counted using a Beckman Model 7800 liquid scintillation spectrometer.

[4] = system: Male Sprague-Dawley (CD) rats, food intake; experiment: Two-meal feeding assay, intraperitoneal administration; type: in vivo, rat; settings: 32 microgm/Kg i.p., mean ± SEM; for Food Intake 1st Meal: 15 min before first meal
Procedure: (§1) Male Sprague-Dawley (CD) rats weighing 180-200 grams (Charles River Breeding Laboratories) were acclimated to a 12 h light/dark cycle (6 a.m. to 6 p.m.) in a room kept at 22° C. They were subsequently fasted for two days, weighed, placed in individual cages, and a four-day period of meal training was begun. During this time the rats were given ground laboratory chow (Purina Lab Chow) in jars for one hour from 9:00 a.m. until 10:00 a.m., the jars were removed from 10:00 a.m. to 12:00 p.m., and placed back in the cages from 12:00 until 1:00 p.m. Under this `1-2-1` meal feeding regime most rats learn to eat approximately as much Per day during the two hours they have access to food as rats which have food ad libitum over the entire 24-hour day. On the fourth day, the rats were weighed again, and any which lost more than five grams body weight were excluded from the test. The animals were then distributed into experimental (n=5 to 6) and control groups (n=6-12). but not matched for body weight.
Peptides of the invention were suspended either in saline. if soluble, or in 1% gum arabic, if insoluble, at concentrations of 0 to 320 μg/ml/kg body weight and were administered intraperitonerally 15 min before the first meal on day 5 of meal feeding. The rats were then given their meals as they had been during the previous four days, and the food cups were weighed both before and after each meal to determine food consumption. Food intake was expressed as a mean and standard error of the mean in grams consumed or as a percent of control values for the various groups. The treated groups were compared to the control groups by t-test analysis. […]

Male rats, food intake = experiment: Two-meal feeding assay, intranasal administration; type: in vivo, rat
Procedure: as §1
Male rats were meal trained as described in Example 9. The peptide of Example 2 was dissolved in saline and was administered to the rats intranasally. CCK-8, dissolved in saline was used as a control.

[5] = system: lean and obese men, food intake; settings: cited from earlier work
[6] = 1000 μg/kg intranasal, saline = 100

Row | Compound | Satiety after peripheral administration (rat and monkey, satiety) | IC50 [1] [nM] | % Degradation by Height ([2]; incubation 0 min) [%] | % Degradation by Height ([2]; incubation 60 min) [%] | % Degradation by Height ([2]; incubation 120 min) [%] | No. of Peaks (degradation products) ([2]; incubation 240 min) | % Degradation by Height ([2]; incubation 240 min) [%] | IC50 ([3]; 0.15 nM radioligand, 30 min, 25° C., read-out: Rat Pancreas IC50 (inhibition of specific 3H-CCK-8-(SO3H) binding)) [nM] | Food Intake 1st Meal [4] | Food Intake 2nd Meal [4] | % Degradation by Height ([2]; incubation 15 min) [%] | % Degradation by Height ([2]; incubation 30 min) [%] | No. of Peaks (degradation products) ([2]; incubation 60 min) | Binding selectivity, receptor sites in pancreas versus brain ([3]; rat pancreas vs bovine striatum) | Food Intake (activity in words) (Male rats, food intake; 400 μg/kg intranasal) | Food Intake 1st meal Grams consumed (Male rats, food intake; 1000 μg/kg intranasal) [Grams] | Food Intake 2nd meal Grams consumed (Male rats, food intake; 1000 μg/kg intranasal) [Grams] | Food Intake 1st meal (%) (Male rats, food intake; [6]) | Food Intake 2nd meal (%) (Male rats, food intake; [6]) | Food intake after infusion [5]
1 | Cholecystokinin (KAPSGRVSMIKNLQSLDPSHRISDRDYMGWMDF; ends and bridges not checked; UniProt P01356 70-102, looked up) [CCK, polypeptide hormone first isolated as a 33-amino acid peptide from the porcine gastrointestinal tract] | produce satiety in the rat and the monkey |  |  |  |  |  |  |  |  |  |  |  |  |  |  |  |  |  |  | 
2 | CCCC[C@H](NC(=O)[C@H](Cc1ccc(OS(=O)(=O)O)cc1)NC(C)=O)C(=O)N[C@H](C)C(=O)N[C@@H](Cc1cn(C=O)c2ccccc12)C(=O)N[C@@H](CCSC)C(=O)N[C@H](C(=O)N(C)[C@@H](Cc1ccccc1)C(N)=O)[C@@H](C)OS(=O)(=O)O [Example 3, Ac-Tyr-(SO3 H)-Nle-(D)Ala-Trp(For)-Met-Thr(SO3 H)-N-methyl-Phe-NH2] (Ac-[sY][Nle][dA]W(For)M[Thr(SO3H)][NMeF]-NH2) |  | 100 | 0 | 0 | 0 | 0 | 0 | 100 | 34 ± 6 % of Control | 164 ± 16 % of Control |  |  |  |  |  |  |  |  |  | 
3 | CSCC[C@H](NC(=O)[C@H](Cc1ccc(OS(=O)(=O)O)cc1)NC(=O)[C@@H](N)CC(=O)O)C(=O)NCC(=O)N[C@@H](Cc1c[nH]c2ccccc12)C(=O)N[C@@H](CCSC)C(=O)N[C@@H](CC(=O)O)C(=O)N[C@@H](Cc1ccccc1)C(N)=O [CCK-8, Asp--Tyr(SO3 H)--Met--Gly--Trp--Met--Asp--Phe--NH2, reference compound] |  |  | 0 | 69.7 |  |  |  |  | 27 ± 17 % of Control | 149 ± 6 % of Control | 6.2 | 33.2 | 4 | binds to receptor sites in the pancreas and brain | Inactive | 4.9 ± 0.7 | 6.3 ± 05 | 66 | 112 | decrease food intake in lean and obese men
